From the CheMixHub viscosity set

Assay: xn = mol fraction of the nth substance listed

COCCOCCOCCOCCOC + CCCO
viscosity [mPa·s], 101 kPa
Conditions | 298.15 K | 308.15 K
x1 = 0.0071 | 1.913 | 1.492
x1 = 0.0125 | 1.9 | 1.485
x1 = 0.0309 | 1.872 | 1.475
x1 = 0.0504 | 1.852 | 1.463
x1 = 0.1024 | 1.841 | 1.467
x1 = 0.1342 | 1.861 | 1.488
x1 = 0.1847 | 1.908 | 1.528
x1 = 0.2444 | 1.989 | 1.593
x1 = 0.2916 | 2.062 | 1.645
x1 = 0.3271 | 2.126 | 1.697
x1 = 0.369 | 2.192 | 1.754
x1 = 0.4386 | 2.31 | 1.84
x1 = 0.4814 | 2.384 | 1.896
x1 = 0.5238 | 2.466 | 1.953
x1 = 0.5941 | 2.577 | 2.041
x1 = 0.6423 | 2.665 | 2.104
x1 = 0.7174 | 2.797 | 2.205
x1 = 0.7487 | 2.855 | 2.247
x1 = 0.7864 | 2.91 | 2.291
x1 = 0.8401 | 3.007 | 2.36

Clc1cccc2ccccc12 + CCCO
viscosity [mPa·s], 101.33 kPa
Conditions | x1 = 0.1004 | x1 = 0.2017 | x1 = 0.2983 | x1 = 0.395 | x1 = 0.5003 | x1 = 0.6002 | x1 = 0.6993 | x1 = 0.7991 | x1 = 0.9003
298.15 K | 1.968 | 2.039 | 2.091 | 2.172 | 2.255 | 2.349 | 2.448 | 2.567 | 2.716
303.15 K | 1.745 | 1.805 | 1.854 | 1.918 | 1.999 | 2.077 | 2.166 | 2.275 | 2.417
308.15 K | 1.57 | 1.62 | 1.672 | 1.714 | 1.789 | 1.86 | 1.943 | 2.043 | 2.178

CCc1ccccc1 + CCO
viscosity [mPa·s], 101.33 kPa
Conditions | x2 = 0.4 | x2 = 0.6 | x2 = 0.8 | x2 = 0.9
303 K | 0.625 | 0.732 | 0.842 | 0.9
313 K | 0.547 | 0.627 | 0.706 | 0.752
323 K | 0.482 | 0.54 | 0.602 | 0.632

Clc1cccc2ccccc12 + CCO
viscosity [mPa·s], 101.33 kPa
Conditions | x1 = 0.0773 | x1 = 0.2002 | x1 = 0.3006 | x1 = 0.3989 | x1 = 0.5008 | x1 = 0.5979 | x1 = 0.7026 | x1 = 0.8011 | x1 = 0.9009
298.15 K | 1.238 | 1.455 | 1.63 | 1.779 | 1.953 | 2.11 | 2.298 | 2.47 | 2.655
303.15 K | 1.119 | 1.314 | 1.471 | 1.606 | 1.757 | 1.89 | 2.045 | 2.214 | 2.389
308.15 K | 1.016 | 1.192 | 1.334 | 1.456 | 1.588 | 1.714 | 1.865 | 2.006 | 2.158

COCCOCCOCCOCCOC + CCOC(=O)OCC
298.15 K, 101.33 kPa
Conditions | viscosity [mPa·s]
x1 = 0.0049 | 0.752
x1 = 0.014 | 0.772
x1 = 0.0274 | 0.796
x1 = 0.044 | 0.824
x1 = 0.068 | 0.879
x1 = 0.0984 | 0.938
x1 = 0.1416 | 1.029
x1 = 0.2036 | 1.164
x1 = 0.2814 | 1.348
x1 = 0.3146 | 1.434
x1 = 0.3497 | 1.519
x1 = 0.3949 | 1.634
x1 = 0.4546 | 1.798
x1 = 0.5017 | 1.939
x1 = 0.5551 | 2.083
x1 = 0.5999 | 2.204
x1 = 0.6478 | 2.349
x1 = 0.691 | 2.478
x1 = 0.7376 | 2.614
x1 = 0.7849 | 2.76
x1 = 0.8377 | 2.915
x1 = 0.8758 | 3.028
x1 = 0.9345 | 3.218
x1 = 0.9719 | 3.328
x2 = 0.0132 | 3.378

COCCOCCOCCOCCOC + CCOC(C)=O
viscosity [mPa·s], 101 kPa
Conditions | 298.15 K | 308.15 K | 318.15 K
x1 = 0.0108 | 0.448 | 0.399 | 0.364
x1 = 0.0195 | 0.462 | 0.413 | 0.375
x1 = 0.0488 | 0.514 | 0.456 | 0.413
x1 = 0.0905 | 0.594 | 0.521 | 0.465
x1 = 0.1406 | 0.695 | 0.607 | 0.534
x1 = 0.1786 | 0.779 | 0.673 | 0.591
x1 = 0.2377 | 0.919 | 0.784 | 0.68
x1 = 0.3377 | 1.176 | 0.988 | 0.847
x1 = 0.4796 | 1.579 | 1.315 | 1.092
x1 = 0.5793 | 1.896 | 1.549 | 1.282
x1 = 0.6422 | 2.11 | 1.699 | 1.4
x1 = 0.7422 | 2.453 | 1.97 | 1.549
x1 = 0.8246 | 2.726 | 2.169 | 1.755
x1 = 0.8574 | 2.878 | 2.258 | 1.826
x1 = 0.9081 | 3.019 | 2.398 | 1.921
x1 = 0.9454 | 3.159 | 2.488 | 1.998
x1 = 0.9792 | 3.305 | 2.581 | 2.072

Clc1ccccc1 + CCOC(C)=O
viscosity [mPa·s], 101 kPa
Conditions | 298.15 K | 308.15 K
x2 = 0.0415 | 0.729 | 0.658
x2 = 0.1504 | 0.669 | 0.607
x2 = 0.2503 | 0.621 | 0.567
x2 = 0.3519 | 0.58 | 0.531
x2 = 0.4264 | 0.553 | 0.507
x2 = 0.4878 | 0.534 | 0.489
x2 = 0.5527 | 0.515 | 0.472
x2 = 0.6519 | 0.489 | 0.448
x2 = 0.7505 | 0.468 | 0.428
x2 = 0.8515 | 0.449 | 0.409
x2 = 0.9389 | 0.436 | 0.396

N#CCCCCC#N + CCOC(C)=O
303.15 K, 101.33 kPa
Conditions | viscosity [mPa·s]
x1 = 0.1075 | 0.5353
x1 = 0.3039 | 0.8893
x1 = 0.3934 | 1.116
x1 = 0.4973 | 1.451
x1 = 0.5975 | 1.861
x1 = 0.6944 | 2.366
x1 = 0.85 | 3.442
